Measured values: patent publication US11680073B2, “Anticancer indenes, indanes, azaindenes, azaindanes, pharmaceutical compositions and uses” (ADT PHARMACEUTICALS, LLC, priority 2018, dated 2023)

Columns and labels:
[1] = test system: cells expressing mutant Ras; conditions: cited from earlier work
[2] = test system: HCT-116, a highly Ras-driven line expressing mutant Ras; experiment: Tumor cell growth inhibition, CellTiter-Glo ATP luminescence assay, HCT-116; format: cell-based, human; conditions: for IC50: HCT-116, 72 h, human colon tumor cells, mutant Ras, 3-day treatment, ten-fold serial dilutions, read-out: micromolar IC50 for HCT-116; for HT-29/HCT-116 Ras Inhibitory Selectivity Index: ratio IC50 HT-29 / IC50 HCT-116, numbers greater than one indicate Ras selectivity
Experimental: (§1) Human cancer cell lines are obtained from the American Type Culture Collection (ATCC). Cells are cultured using standard methods in RPMI-1640 growth medium supplemented with 5% fetal bovine serum (FBS). CellTiter-Glo ATP cell growth assay reagents are obtained from Promega and used according to the manufacturer's protocol. Cells are plated at a density of 5,000 cells per well in 96-well microplates or 1,250 cells per well in 384-well plates, then allowed to attach for at least 4 h. Test compounds are dissolved in dimethyl sulfoxide (DMSO), and this working stock is further diluted in growth medium for addition to cell cultures. Serial dilutions of the test compound are prepared in growth medium containing an equal amount of DMSO not exceeding 0.2% final concentration. Each compound concentration is tested in at least 3 separate samples per cell line. At the end of a 3-day treatment period, growth inhibition is analyzed using a bioluminescent assay of ATP concentration (Promega CellTiter-Glo) according to the manufacturer's protocol. Resulting luminescence is measured using the luminescence cartridge of the Molecular Devices Spectramax Paradigm microplate reader. Relative growth inhibition for each sample is determined by comparison with the values obtained for vehicle treated control samples. Growth inhibition values are plotted with the GraphPad Prism5 software using the 4-parameter logistic fit to obtain IC50 values, which corresponds to the growth inhibitory potency of the compound.
(§2) This selected example illustrates the use of well-established human colon tumor cell lines with widely divergent Ras activation status to determine tumor cell growth inhibitory activity (IC50 values) and Ras selectivity values for some selected exemplary compounds of the present invention. Cell lines thus employed in this example are HCT-116, a highly Ras-driven line expressing mutant Ras, and HT-29, a non-Ras-driven line expressing wild-type, non-mutated Ras. Cells are plated at 5000 cells/well in 96-well plates, ten-fold serial dilutions of compounds are tested, each tested concentration in at least 3 separate samples per cell line, and viable cell numbers are measured using the Cell Titer Glo ATP luminescence assay (Promega). […] FIGS. 5-7 provide examples of full data sets from which numerical values, including Ras selectivity indices, can be calculated; data sets are shown for selected exemplary compounds 2090, 2096 and 2183. […]

[3] = test system: HT-29, a non-Ras-driven line expressing wild-type, non-mutated Ras; experiment: Tumor cell growth inhibition, CellTiter-Glo ATP luminescence assay, HT-29; format: cell-based; conditions: HT-29, 72 h, human colon tumor cells, 3-day treatment, ten-fold serial dilutions, read-out: micromolar IC50 for HT-29
Experimental: as §1, §2

## Cc1onc(C(=O)N2CCN(C(c3ccc(Cl)cc3)c3ccc(Cl)cc3)CC2)c1[N+](=O)[O-] [ML210]
[1]; cells expressing mutant Ras, read-out: IC50, growth inhibition of cells expressing mutant Ras
  IC50: 0.071 µM
[1]; versus cells lacking oncogenic Ras
  selectivity versus cells lacking oncogenic Ras: 4 fold

## COc1cc(/C=C2/C(C)=C(CC(=O)NCc3cccnc3)c3cc(F)ccc32)cc(OC)c1B(O)O [compound 1736, (Z)-(4-((5-fluoro-2-methyl-3-(2-oxo-2-((pyridin-3-ylmethyl)amino)ethyl)-1H-inden-1-ylidene)methyl)-2,6-dimethoxyphenyl)boronic acid]
[2]
  IC50: 5.05 µM
  HT-29/HCT-116 Ras Inhibitory Selectivity Index: 1.11
[3]
  IC50: 5.59 µM

## COc1cc(CC2c3ccc(F)cc3C(CC(=O)NCc3ccccc3)C2C)cc(OC)c1O (centres unmarked) [compound 1796, N-benzyl-2-(6-fluoro-3-(4-hydroxy-3,5-dimethoxybenzyl)-2-methyl-2,3-dihydro-1H-inden-1-yl)acetamide]
[2]
  IC50: 0.212 µM
  HT-29/HCT-116 Ras Inhibitory Selectivity Index: 38
[3]
  IC50: 8.03 µM

## COc1cc(/C=C2/C(C)=C(CNC(=O)c3ccco3)c3cc(F)ccc32)cc(OC)c1O [compound 2090, (Z)—N-((5-fluoro-1-(4-hydroxy-3,5-dimethoxybenzylidene)-2-methyl-1H-inden-3-yl)methyl)furan-2-carboxamide]
[2]
  IC50: 0.3 µM
  HT-29/HCT-116 Ras Inhibitory Selectivity Index: 43
[3]
  IC50: 13 µM

## COc1cc(/C=C2/C(C)=C(CNC(=O)Cc3cccnc3)c3cc(F)ccc32)cc(OC)c1O [compound 2096, (Z)—N-((5-fluoro-1-(4-hydroxy-3,5-dimethoxybenzylidene)-2-methyl-1H-inden-3-yl)methyl)-2-(pyridin-3-yl)acetamide]
[2]
  IC50: 0.033 µM
  HT-29/HCT-116 Ras Inhibitory Selectivity Index: 273
[3]
  IC50: 9 µM

## COc1cc(/C=C2/C(C)=C(CNC(=O)c3cn[nH]c3)c3cc(F)ccc32)cc(OC)c1O [compound 2183, (Z)—N-((5-fluoro-1-(4-hydroxy-3,5-dimethoxybenzylidene)-2-methyl-1H-inden-3-yl)methyl)-1H-pyrazole-4-carboxamide]
[2]
  IC50: 0.42 µM
  HT-29/HCT-116 Ras Inhibitory Selectivity Index: 22
[3]
  IC50: 9.28 µM

## COc1cc(/C=C2/C(C)=C(CC(=O)NCc3cccnc3)c3cc(F)ccc32)cc(OC)c1B1OC(C)(C)C(C)(C)O1 [compound 2200, (Z)-2-(1-(3,5-dimethoxy-4-(4,4,5,5-tetramethyl-1,3,2-dioxaborolan-2-yl)benzylidene)-5-fluoro-2-methyl-1H-inden-3-yl)-N-(pyridin-3-ylmethyl)acetamide]
[2]
  IC50: 6.18 µM
  HT-29/HCT-116 Ras Inhibitory Selectivity Index: 1.08
[3]
  IC50: 6.65 µM
